pIC50: −log10 of the molar value.

The nature of test [1]: Inhibition of alpha-glucosidase (unknown origin).
For test [2], the system named is HepG2. Briefly: Anti-diabetic activity in insulin-resistant human HepG2 cells assessed as increase in insulin-stimulated 2-NBDG uptake at 10 uM pretreated for 24 hrs followed by 2-NBDG addition measured after 30 mins by fluorescence assay relative to control. Type of test: functional.
In test [3] the test system is HepG2. Briefly: Anti-diabetic activity in insulin-resistant human HepG2 cells assessed as increase in insulin-stimulated 2-NBDG uptake pretreated for 24 hrs followed by 2-NBDG addition measured after 30 mins by fluorescence assay. The format is functional, cell-based.
Test [4] concerns HepG2. The test is described as follows: Anti-diabetic activity in insulin-resistant human HepG2 cells assessed as increase in insulin-stimulated 2-NBDG uptake at 50 uM pretreated for 24 hrs followed by 2-NBDG addition measured after 30 mins by fluorescence assay relative to control. The format is functional.
Test [5] concerns the target T1, Tyrosine-protein phosphatase non-receptor type 1 (Homo sapiens, UniProt P18031).
T1 sequence (P18031 whole entry): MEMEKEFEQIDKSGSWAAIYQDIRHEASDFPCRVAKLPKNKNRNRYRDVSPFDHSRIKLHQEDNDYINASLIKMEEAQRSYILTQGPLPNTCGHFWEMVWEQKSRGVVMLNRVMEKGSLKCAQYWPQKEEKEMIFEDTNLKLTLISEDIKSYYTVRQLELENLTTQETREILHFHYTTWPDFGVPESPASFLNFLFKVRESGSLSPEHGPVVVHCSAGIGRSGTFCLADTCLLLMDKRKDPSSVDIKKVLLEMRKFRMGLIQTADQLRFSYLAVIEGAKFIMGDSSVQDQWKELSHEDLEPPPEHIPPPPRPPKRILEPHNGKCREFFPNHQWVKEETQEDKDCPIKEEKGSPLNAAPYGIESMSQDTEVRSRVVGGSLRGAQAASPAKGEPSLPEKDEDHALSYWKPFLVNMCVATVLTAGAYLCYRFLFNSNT
Briefly: Inhibition of PTP1B (unknown origin) using pNPP as substrate pretreated for 10 mins followed by substrate addition measured after 20 mins by spectrophotometric method.

Broadly, the pIC50 is the negative decadic logarithm of the IC50, by convention in mol/L. In the case of `C[C@H]1O[C@H](O[C@H]2[C@H](O)[C@@H](O)[C@@H](O[C@H]3[C@H](O)[C@@H](O)C(O)O[C@@H]3CO)O[C@@H]2CO)[C@H](O)[C@@H](O)[C@@H]1N[C@H]1C=C(CO)[C@@H](O)[C@H](O)[C@H]1O` (stereo partly drawn) [ACARBOSE], the negative-log IC50 (pIC50) in test [1] is 3.75.

As for `CN(C)C(=N)NC(=N)N` [METFORMIN], the Activity in the test on HepG2 [2] was determined as 125%.

Consider `O=C1C[C@@H](c2ccc(O)cc2)Oc2cc(O)cc(O)c21` [NARINGENIN], for which the Activity result is “Dose-dependent effect” in the test on HepG2 [3] and 71.23% in the test with HepG2 [4]. Also, the pIC50 was 4.97 in test [1] and 3.89 in test [5].

Consider `C[C@@H]1O[C@@H](O[C@H]2[C@H](Oc3cc(O)c4c(c3)O[C@H](c3ccc(O)cc3)CC4=O)O[C@H](CO)[C@@H](O)[C@@H]2O)[C@H](O)[C@H](O)[C@H]1O` [NARINGIN], for which the Activity result with HepG2 [3] is “Dose-dependent effect”; in the test on HepG2 [4], 82.17%. For the same compound, the pIC50 is less than 3.70 in test [1] and 4.04 in test [5].

As to `C[C@@H]1O[C@@H](OC[C@H]2O[C@@H](Oc3cc(O)c4c(c3)O[C@H](c3ccc(O)cc3)CC4=O)[C@H](O)[C@@H](O)[C@@H]2O)[C@H](O)[C@H](O)[C@H]1O` [NARIRUTIN], the Activity entry was “Dose-dependent effect” in the test on HepG2 [3] and 86.93% with HepG2 [4]. Besides, the values for the pIC50 in test [1] and in test [5] were less than 3.70 and 4.25, respectively.

As to `O=C1C[C@@H](c2ccc(O)cc2)Oc2cc(O[C@@H]3O[C@H](CO)[C@@H](O)[C@H](O)[C@H]3O)cc(O)c21` [PRUNIN], the Activity result in the test on HepG2 [3] is “Dose-dependent effect”; in the test with HepG2 [4], 109.45%. Also, the pIC50 in test [1] is 3.97; in test [5] it was 4.76.

Source of the values: ChEMBL document CHEMBL4028838, “Structure-related protein tyrosine phosphatase 1B inhibition by naringenin derivatives” (Bioorg Med Chem Lett, 2017).
